Some test systems named below: A498; DMS-273; DU-145; EKVX; HCC 2998; HCT-15; HL-60; KM12; MCF7; MDA-MB-435; NCI-H226; NCI-H460; NCI-H522; NCI/ADR-RES; OVCAR-8; SK-MEL-28; SK-MEL-5; SK-OV-3; SN12C; SNB-75.
Common to all, as to test: DTP human tumour cell line panel, 48 h

This note sets out measurements from ChEMBL document CHEMBL1201862, “PubChem BioAssay data set” (2004).

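Where inhibition never reached the appropriate level, the endpoint shown equals the highest concentration tested. Otherwise, values were interpolated linearly from a five-concentration, 48-hour dose response in 96-well plates. Abbreviation: GI50, concentration required for 50% inhibition of growth.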 Active and inactive are the calls of the source. Rule as the data show it: active = GI50 up to about 1.1 µM and inactive = higher.

Usually GI50 stands for the concentration giving 50% growth inhibition. With `COc1ccc(-c2nc(N)n(C)c2SSc2c(-c3ccc(OC)cc3)nc(N)n2C)cc1`, the GI50 in the experiment with A498 was 7.64 µM (inactive); in the experiment with DMS-273 it was 3.88 µM (inactive); in the experiment with DU-145, 17.3 µM (inactive); with EKVX, 20.8 µM (inactive); with HCC 2998, 17.8 µM (inactive); in the experiment with HCT-15, 3.04 µM. The GI50 in the experiment on HL-60 is 2.59 µM (inactive); in the experiment with KM12 it was 12.9 µM (inactive); in the experiment on MCF7 it was 8.51 µM (inactive); in the experiment on MDA-MB-435, 3.92 µM (inactive); with NCI-H226 it was 17.4 µM (inactive); with NCI-H460 it was 20.8 µM (inactive). Moreover, the GI50 was 1.81 µM (inactive) in the experiment with NCI-H522; 14.2 µM (inactive) with NCI/ADR-RES; 5.81 µM (inactive) with OVCAR-8; 3.61 µM (inactive) in the experiment with SK-MEL-28; 2.08 µM (inactive) in the experiment on SK-MEL-5; 18.6 µM (inactive) in the experiment with SK-OV-3. Moreover, the values for the GI50 in the experiment on SN12C and with SNB-75 were 11.3 µM (inactive) and 3.34 µM (inactive), respectively.

Regarding `Clc1ccc(-c2c(C3=NCCCN3)nnn2-c2ccc(Cl)cc2)cc1`, the GI50 was 29.4 µM (inactive) in the experiment on A498; 60.5 µM (inactive) in the experiment with DMS-273; > 91.2 µM (inactive) in the experiment on DU-145; 63.1 µM (inactive) in the experiment with EKVX; 18.2 µM (inactive) in the experiment on HCC 2998; 75.5 µM in the experiment on HCT-15. The GI50 is 17.5 µM (inactive) in the experiment on HL-60; 57.4 µM (inactive) with KM12; 26.8 µM (inactive) in the experiment on MCF7; 19.2 µM (inactive) in the experiment on MDA-MB-435; 60.3 µM (inactive) in the experiment with NCI-H226; 40.9 µM (inactive) in the experiment with NCI-H460. Besides, the GI50 in the experiment on NCI-H522 was 32.9 µM (inactive); in the experiment with NCI/ADR-RES, > 50.6 µM (inactive); with OVCAR-8, > 70.3 µM (inactive); in the experiment with SK-MEL-28, 17.1 µM (inactive); in the experiment on SK-MEL-5 it was 17.7 µM (inactive); with SK-OV-3 it was > 76.6 µM (inactive). The figures for the GI50 with SN12C and in the experiment on SNB-75 were 64 µM (inactive) and 29.8 µM (inactive), respectively.

`Cc1ccc(OC(=O)N2C/C(=C\c3ccccc3)C(=O)/C(=C/c3ccccc3)C2)cc1`: the GI50 in the experiment with A498 was > 66.5 µM (inactive); with DMS-273, 4.83 µM (inactive); in the experiment on DU-145 it was > 100 µM (inactive); in the experiment with EKVX, > 100 µM (inactive); in the experiment on HCC 2998 it was 10 µM (inactive); with HCT-15 it was 26.3 µM. In addition, the GI50 is 3.84 µM (inactive) in the experiment with HL-60; 16.2 µM (inactive) in the experiment on KM12; 5.14 µM (inactive) with MCF7; 56.5 µM (inactive) in the experiment on NCI-H226; 53 µM (inactive) in the experiment on NCI-H460; 13 µM (inactive) in the experiment on NCI-H522. Moreover, the GI50 with OVCAR-8 is 19.6 µM (inactive); with SK-MEL-28 it was 25.7 µM (inactive); in the experiment with SK-MEL-5 it was 20.6 µM (inactive); in the experiment with SK-OV-3, 41.3 µM (inactive); in the experiment with SN12C, 24.8 µM (inactive); with SNB-75, 23 µM (inactive).

Regarding `CCOC(=O)c1c(C)c2c(n1C)CCc1c[nH]nc1-2`, the GI50 is > 100 µM (inactive) with A498; > 100 µM (inactive) with DMS-273; 18 µM (inactive) with EKVX; > 100 µM (inactive) in the experiment with HCC 2998; greater than 100 µM with HCT-15; > 100 µM (inactive) in the experiment on HL-60. Besides, the GI50 in the experiment with KM12, with MCF7, with NCI-H226, with NCI-H460, in the experiment with NCI-H522 and with NCI/ADR-RES was > 100 µM (inactive) in each case. Besides, the GI50 in the experiment with OVCAR-8, with SK-MEL-28, with SK-MEL-5, in the experiment on SK-OV-3, in the experiment on SN12C and in the experiment with SNB-75 was > 100 µM (inactive) throughout.
